Structures are written as SMILES.

T1 sequence (O60760 whole entry): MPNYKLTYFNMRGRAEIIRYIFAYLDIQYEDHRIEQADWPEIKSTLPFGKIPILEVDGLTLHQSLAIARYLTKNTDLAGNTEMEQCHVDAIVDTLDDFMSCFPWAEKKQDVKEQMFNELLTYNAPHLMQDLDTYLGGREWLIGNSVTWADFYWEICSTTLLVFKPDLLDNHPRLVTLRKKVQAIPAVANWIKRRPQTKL

The experiment concerns the target T1, human H-PGDS (Homo sapiens, UniProt O60760).
T1 construct: Full length human H-PGDS cDNA (Invitrogen Ultimate ORF IOH13026) was amplified by PCR; 6-His (N); TEV protease cleavage site (N); made in house; host or cells: E. coli BL21 (DE3*) for H-PGDS; Sf9 insect cells (baculovirus) for COX-2
Kind of experiment: H-PGDS RapidFire high throughput mass spectrometry assay. The note with it: inhibition of conversion of PGH2 to PGD2 by H-PGDS; mean pIC50; read-out: Potency Range (mean pIC50) (converted). The format is biochemical. The essentials: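 Full-length His-tagged human H-PGDS from E. coli converted PGH2, generated in situ (~10 μM burst) from arachidonic acid by FLAG-tagged human COX-2 (Sf9-expressed). PGD2 and PGF2α (substrate surrogate) were measured by RapidFire SPE-triple quadrupole MS. Percent conversion was calculated, and inhibition was taken as reduced conversion.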
As for `O=C(N[C@H]1CC2(CC2)NC1=O)c1cnc(-c2cc(F)cc(Cl)c2)s1` [Example 21, (S)-2-(3-Chloro-5-fluorophenyl)-N-(5-oxo-4-azaspiro[2.4]heptan-6-yl)thiazole-5-carboxamide], the IC50 is 1.02 to 10 nM.
For `O=C(N[C@@H]1C(=O)N[C@H]2COC[C@H]21)c1cnc(-c2cc(F)cc(Cl)c2)s1` [Example 53, 2-(3-Chloro-5-fluorophenyl)-N-((3S,3aR,6aR)-2-oxohexahydro-1H-furo[3,4-b]pyrrol-3-yl)thiazole-5-carboxamide] the value was 10.2 to 100 nM; for `C[C@H]1[C@H](NC(=O)c2cnc(-c3cc(F)cc(Cl)c3)s2)C(=O)N[C@@H]1C` [Example 36, 2-(3-Chloro-5-fluorophenyl)-N-((3S,4R,5R)-4,5-dimethyl-2-oxopyrrolidin-3-yl)thiazole-5-carboxamide], 10.2 to 100 nM.
With `CC1(C)C[C@H](NC(=O)c2cnc(-c3cc(F)cc(Cl)c3)s2)C(=S)N1` [Example 85, (S)-2-(3-Chloro-5-fluorophenyl)-N-(5,5-dimethyl-2-thioxopyrrolidin-3-yl)thiazole-5-carboxamide], the IC50 was 1.02 to 10 nM.
Under `CC1(C)CNC(=O)[C@H]1NC(=O)c1cnc(-c2cc(F)cc(Cl)c2)s1` [Example 19, (S)-2-(3-Chloro-5-fluorophenyl)-N-(4,4-dimethyl-2-oxopyrrolidin-3-yl)thiazole-5-carboxamide] stands 10.2 to 100 nM.

Source of the values: patent US20220009918A1, “Chemical Compounds” (GlaxoSmithKline Intellectual Property Development Limited, priority 2018, published 2022).
